Test results: article PMC9926234, “Iterative computational design and crystallographic screening identifies potent inhibitors targeting the Nsp3 macrodomain of SARS-CoV-2” (Proceedings of the National Academy of Sciences of the …, 2023)
Like-named read-outs stand apart in the source and are kept apart here.

Assays:
SARS-CoV-2 NSP3 Mac1 [1] = molecular target: SARS-CoV-2 NSP3 Mac1 (Severe acute respiratory syndrome coronavirus 2, UniProt P0DTD1); format: binding; settings: for Refined occupancy: ligand occupancy after refinement (phenix.refine)
SARS-CoV-2 NSP3 Mac1 [2] = assay: Overall hit call (binding in crystallographic soaking or the HTRF-based binding assay)
Description: Supplement pnas.2212931120.sd01.xlsx, sheet "Compound Summary" | column: HIT*

[3] = PanDDA event map, 1 minus background density correction, crystal soaking of Mac1
[4] = ligand modeled from this dataset, compound concentration 100 mM
[5] = PanDDA 1-BDC of the event, compound stock 100 mM, Echo dispense volume 40 nl
[6] = PanDDA 1-BDC of the event, compound stock 100 mM, Echo dispense volume 80 nl
[7] = crystal soak, compound stock 100 mM, Echo dispense volume 40 nl
[8] = crystal soak, compound stock 100 mM, Echo dispense volume 80 nl
[9] = ligand modeled in structure, compound stock 100 mM, Echo dispense volume 80 nl
[10] = PanDDA event map 1-BDC, crystal soak, Compound_concentration 100 mM, PanDDA run dmso_34 or nohits_35 per dataset
[11] = crystal soak, Compound_concentration 100 mM, Echo dispense 40 nl, PanDDA run dmso_34 or nohits_35 per dataset
[12] = ligand modeled in this dataset, crystal soak, Compound_concentration 100 mM
[13] = PanDDA event map background density correction, crystal soak, compound concentration 100 mM
[14] = ligand modeled in the crystal structure, crystal soak, compound concentration 100 mM

SMILES	Refined occupancy (SARS-CoV-2 NSP3 Mac1 [1]; crystal soaking of Mac1)	HIT* (SARS-CoV-2 NSP3 Mac1 [2])	1-BDC (SARS-CoV-2 NSP3 Mac1 [1]; [6])	1-BDC (PanDDA) (SARS-CoV-2 NSP3 Mac1 [1]; [3])	PanDDA hit? (SARS-CoV-2 NSP3 Mac1 [1]; [8])	1-BDC (SARS-CoV-2 NSP3 Mac1 [1]; [10])	PanDDA hit? (SARS-CoV-2 NSP3 Mac1 [1]; [11])	other results
O=S1(=O)CC(CNc2ncnc3[nH]ccc23)C1 [SRH-0005]	18	Y						1-BDC (SARS-CoV-2 NSP3 Mac1 [1]; [3]): 0.09; Modeled? (SARS-CoV-2 NSP3 Mac1 [1]; [4]): TRUE
O=C(O)[C@@H]1CCC[C@H](Nc2ncnc3[nH]c4cc(F)ccc4c23)C1 [LRH-0022]	64	Y	0.32	0.32	TRUE			1-BDC (SARS-CoV-2 NSP3 Mac1 [1]; [5]): 0.28; PanDDA hit? (SARS-CoV-2 NSP3 Mac1 [1]; [7]): TRUE; Modeled? (SARS-CoV-2 NSP3 Mac1 [1]; [9]): TRUE; Comment (ligand modelled in the crystal structure) (SARS-CoV-2 NSP3 Mac1 [1]; what was observed in density instead of the vendor structure): pyrimido-indole core only
O[C@@H]1CC[C@H](Nc2ncnc3[nH]ccc23)C1 [SRH-0018]	14	Y						1-BDC (SARS-CoV-2 NSP3 Mac1 [1]; [3]): 0.07; Modeled? (SARS-CoV-2 NSP3 Mac1 [1]; [4]): TRUE
O[C@@H]1CC[C@H](Nc2ncnc3[nH]c4cc(F)ccc4c23)C1 [LRH-0018]	14	Y	0.07	0.07	TRUE	0.07	TRUE	Modeled? (SARS-CoV-2 NSP3 Mac1 [1]; [12]): TRUE
Cn1ncc2c(=O)[nH]c(CCC(=O)N3CC=C(C(=O)O)C3)nc21 [Z6689]	34	Y		0.17				1-BDC (SARS-CoV-2 NSP3 Mac1 [1]; [13]): 0.17; Modeled? (SARS-CoV-2 NSP3 Mac1 [1]; [14]): TRUE
O=C(O)c1csc(CCNC(=O)c2cc3[nH]cnc3cc2F)n1 [Z5740]	20	Y		0.1				1-BDC (SARS-CoV-2 NSP3 Mac1 [1]; [13]): 0.1; Modeled? (SARS-CoV-2 NSP3 Mac1 [1]; [14]): TRUE
O=S1(=O)CC(CNc2ncnc3[nH]c4cc(F)ccc4c23)C1 [LRH-0005]	20	Y	0.1	0.1	TRUE			1-BDC (SARS-CoV-2 NSP3 Mac1 [1]; [5]): 0.1; PanDDA hit? (SARS-CoV-2 NSP3 Mac1 [1]; [7]): TRUE; Modeled? (SARS-CoV-2 NSP3 Mac1 [1]; [9]): TRUE
O=S1(=O)CCC1CNc1ncnc2[nH]c3cc(F)ccc3c12 (stereo not shown) [LRH-0012]	14	Y	0.06	0.07	TRUE	0.07	TRUE	Modeled? (SARS-CoV-2 NSP3 Mac1 [1]; [12]): TRUE
O=S1(=O)CCCC(Nc2ncnc3[nH]ccc23)C1 (stereo not shown) [SRH-0010]	26	Y		0.13		0.13	TRUE	Modeled? (SARS-CoV-2 NSP3 Mac1 [1]; [12]): TRUE
COC(=O)CC1CN(c2ncnc3[nH]c4cc(F)ccc4c23)CCO1 (stereo not shown) [LL114_0040]	16	Y	0.08	0.08	TRUE	0.11	TRUE	1-BDC (SARS-CoV-2 NSP3 Mac1 [1]; PanDDA event map, crystal soak, Compound_concentration 100 mM, Echo_dispense_volume 40 nl): 0.08; PanDDA hit? (SARS-CoV-2 NSP3 Mac1 [1]; crystal soak, Compound_concentration 100 mM, Echo_dispense_volume 40 nl, PanDDA run (background map) dmso_34, nohits_35 or nohits_62): TRUE; Modeled? (SARS-CoV-2 NSP3 Mac1 [1]; ligand modeled, crystal soak, Compound_concentration 100 mM, Echo_dispense_volume 40 nl): TRUE
CN(c1ncnc2[nH]c3cc(F)ccc3c12)C1CCCS(=O)(=O)C1 (stereo not shown) [LRM-0010]	12	Y	0.06	0.06	TRUE			Modeled? (SARS-CoV-2 NSP3 Mac1 [1]; [9]): TRUE
